Experimental data from PubChem BioAssay AID2060483 (Molecular Pharmacology Branch, DTP, NCI, 2025).
pIC50: −log10 of the molar value.

Tested on: K24384-001-R-PDC complex spheroids, viability
Assay: Anticancer human tumor K24384-001-R-PDC patient-derived pancreatic adenocarcinoma cell line growth inhibition [GQUAD]
Conditions: for pIC50: curve of first compound; for viability, T/C: stronger effect = lower value
Method in brief: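 Viability of tumor cells grown as complex spheroids with endothelial and stromal cells, exposed to drug combinations. Top concentration at or near clinical Cmax (else 10 microM), diluted in half-log increments.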

[1] = second compound 0.0316 µM, first compound 0.0316 µM
[2] = second compound 0.0316 µM, first compound 0.1 µM
[3] = second compound 0.0316 µM, first compound 0.316 µM
[4] = second compound 0.0316 µM, first compound 1 µM
[5] = second compound 0.0316 µM, first compound 3.16 µM
[6] = second compound 0.0316 µM, first compound 10 µM
[7] = second compound 0.1 µM, first compound 0.0316 µM
[8] = second compound 0.1 µM, first compound 0.1 µM
[9] = second compound 0.1 µM, first compound 0.316 µM
[10] = second compound 0.1 µM, first compound 1 µM
[11] = second compound 0.1 µM, first compound 3.16 µM
[12] = second compound 0.1 µM, first compound 10 µM
[13] = second compound 0.316 µM, first compound 0.0316 µM
[14] = second compound 0.316 µM, first compound 0.1 µM
[15] = second compound 0.316 µM, first compound 0.316 µM
[16] = second compound 0.316 µM, first compound 1 µM
[17] = second compound 0.316 µM, first compound 3.16 µM
[18] = second compound 0.316 µM, first compound 10 µM
[19] = second compound 1 µM, first compound 0.0316 µM
[20] = second compound 1 µM, first compound 0.1 µM
[21] = second compound 1 µM, first compound 0.316 µM
[22] = second compound 1 µM, first compound 1 µM
[23] = second compound 1 µM, first compound 3.16 µM
[24] = second compound 1 µM, first compound 10 µM
[25] = second compound 3.16 µM, first compound 0.0316 µM
[26] = second compound 3.16 µM, first compound 0.1 µM
[27] = second compound 3.16 µM, first compound 0.316 µM
[28] = second compound 3.16 µM, first compound 1 µM
[29] = second compound 3.16 µM, first compound 3.16 µM
[30] = second compound 3.16 µM, first compound 10 µM
[31] = second compound 10 µM, first compound 0.0316 µM
[32] = second compound 10 µM, first compound 0.1 µM
[33] = second compound 10 µM, first compound 0.316 µM
[34] = second compound 10 µM, first compound 1 µM
[35] = second compound 10 µM, first compound 3.16 µM
[36] = second compound 10 µM, first compound 10 µM
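Also: spheroids exposed to compounds for seven days.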

`COc1ncnc(C2CC2)c1-c1ncc2cnn(Cc3ccc(-c4nc(C(F)(F)F)cn4C(C)C)cc3)c2n1` + CN(C)c1ccc(Nc2c3ccc(NC(=O)CCN4CCCC4)cc3nc3cc(NC(=O)CCN4CCCC4)ccc23)cc1 was tested, and the pIC50 (second compound 0.0316 µM) was under 5.00, the pIC50 (second compound 0.1 µM) was under 5.00 and the pIC50 (second compound 0.316 µM) was under 5.00. For the same compound, the pIC50 (second compound 1 µM) was under 5.00, the pIC50 (second compound 3.16 µM) was under 5.00 and the pIC50 (second compound 10 µM) was 5.16. It also gave a viability, T/C [1] of 85%, a viability, T/C [2] of 107% and a viability, T/C [3] of 107%. The viability, T/C [4] was 96.9%, the viability, T/C [5] was 83.6% and the viability, T/C [6] was 104%. The viability, T/C [7] was 73.9%, the viability, T/C [8] was 86.3% and the viability, T/C [9] was 100%. The viability, T/C [10] was 86.1%, the viability, T/C [11] was 96.7% and the viability, T/C [12] was 110%. For the same compound, the viability, T/C [13] was 79.9%, the viability, T/C [14] was 90.7% and the viability, T/C [15] was 77%. It also gave a viability, T/C [16] of 102%, a viability, T/C [17] of 97.2% and a viability, T/C [18] of 93.5%. It also gave a viability, T/C [19] of 88.1%, a viability, T/C [20] of 84.2% and a viability, T/C [21] of 88.6%. It also gave a viability, T/C [22] of 95.6%, a viability, T/C [23] of 73.7% and a viability, T/C [24] of 88.6%. It also gave a viability, T/C [25] of 85.1%, a viability, T/C [26] of 112% and a viability, T/C [27] of 85.6%. It also gave a viability, T/C [28] of 79.1%, a viability, T/C [29] of 86.9% and a viability, T/C [30] of 91.8%. For the same compound, the viability, T/C [31] was 65.7%, the viability, T/C [32] was 99.2% and the viability, T/C [33] was 79.2%. The viability, T/C [34] was 88%, the viability, T/C [35] was 70.4% and the viability, T/C [36] was 40.6%.
`CC1COCCN1c1cc(-c2ccnn2C)c2ccnc(-c3ccn[nH]3)c2n1` (stereo not given) + Cc1[nH]c2ccc(F)cc2c1-c1nc2c3cccnc3c3ncccc3c2[nH]1 showed a pIC50 (second compound 0.0316 µM) of 6.67, a pIC50 (second compound 0.1 µM) of 6.62 and a pIC50 (second compound 0.316 µM) of 6.66. The pIC50 (second compound 1 µM) was 6.75, the pIC50 (second compound 3.16 µM) was 7.24 and the pIC50 (second compound 10 µM) was 7.29. The viability, T/C [1] was 84.6%, the viability, T/C [2] was 63.7% and the viability, T/C [3] was 45.1%. For the same compound, the viability, T/C [4] was 28.7%, the viability, T/C [5] was 44.8% and the viability, T/C [6] was 31.8%. For the same compound, the viability, T/C [7] was 68.7%, the viability, T/C [8] was 68.9% and the viability, T/C [9] was 44.3%. The viability, T/C [10] was 31.1%, the viability, T/C [11] was 45% and the viability, T/C [12] was 36.5%. It also gave a viability, T/C [13] of 71.4%, a viability, T/C [14] of 76.5% and a viability, T/C [15] of 38.7%. It also gave a viability, T/C [16] of 33.5%, a viability, T/C [17] of 39.8% and a viability, T/C [18] of 38.2%. For the same compound, the viability, T/C [19] was 62.1%, the viability, T/C [20] was 64.6% and the viability, T/C [21] was 29.5%. The viability, T/C [22] was 41.5%, the viability, T/C [23] was 39.6% and the viability, T/C [24] was 36.3%. It also gave a viability, T/C [25] of 55.5%, a viability, T/C [26] of 48.1% and a viability, T/C [27] of 31.4%. The viability, T/C [28] was 41%, the viability, T/C [29] was 29.3% and the viability, T/C [30] was 35.7%. It also gave a viability, T/C [31] of 57.4%, a viability, T/C [32] of 39.9% and a viability, T/C [33] of 30.3%. For the same compound, the viability, T/C [34] was 31.5%, the viability, T/C [35] was 24.1% and the viability, T/C [36] was 28.9%.
`CC1COCCN1c1cc(C2(O)CC3CCC(C2)O3)c2cnn(-c3ccn[nH]3)c2n1` (stereo not given) + Cc1[nH]c2ccc(F)cc2c1-c1nc2c3cccnc3c3ncccc3c2[nH]1 was tested, and the pIC50 (second compound 0.0316 µM) was 6.64, the pIC50 (second compound 0.1 µM) was 6.68 and the pIC50 (second compound 0.316 µM) was 6.75. It also gave a pIC50 (second compound 1 µM) of 6.74, a pIC50 (second compound 3.16 µM) of 6.86 and a pIC50 (second compound 10 µM) of 7.21. For the same compound, the viability, T/C [1] was 75.8%, the viability, T/C [2] was 57.4% and the viability, T/C [3] was 51.6%. For the same compound, the viability, T/C [4] was 27%, the viability, T/C [5] was 24.5% and the viability, T/C [6] was 19.8%. The viability, T/C [7] was 65.6%, the viability, T/C [8] was 82.1% and the viability, T/C [9] was 36.4%. The viability, T/C [10] was 30.2%, the viability, T/C [11] was 33.5% and the viability, T/C [12] was 22.7%. For the same compound, the viability, T/C [13] was 69%, the viability, T/C [14] was 54.9% and the viability, T/C [15] was 44.2%. For the same compound, the viability, T/C [16] was 32.4%, the viability, T/C [17] was 32.9% and the viability, T/C [18] was 19.1%. It also gave a viability, T/C [19] of 77.3%, a viability, T/C [20] of 59.7% and a viability, T/C [21] of 37.2%. The viability, T/C [22] was 35.2%, the viability, T/C [23] was 32.4% and the viability, T/C [24] was 18.1%. The viability, T/C [25] was 53.8%, the viability, T/C [26] was 63.4% and the viability, T/C [27] was 28.4%. For the same compound, the viability, T/C [28] was 30.5%, the viability, T/C [29] was 28.7% and the viability, T/C [30] was 13.2%. It also gave a viability, T/C [31] of 55.3%, a viability, T/C [32] of 50.9% and a viability, T/C [33] of 26.2%. For the same compound, the viability, T/C [34] was 28.4%, the viability, T/C [35] was 22.9% and the viability, T/C [36] was 9.97%.
`CC1COCCN1c1cc(C2(S(C)(=N)=O)CC2)nc(-c2ccnc3[nH]ccc23)n1` (stereo not given) + Cc1[nH]c2ccc(F)cc2c1-c1nc2c3cccnc3c3ncccc3c2[nH]1 was tested, and the pIC50 (second compound 0.0316 µM) was 5.79, the pIC50 (second compound 0.1 µM) was 5.77 and the pIC50 (second compound 0.316 µM) was 5.82. It also gave a pIC50 (second compound 1 µM) of 5.70, a pIC50 (second compound 3.16 µM) of 5.69 and a pIC50 (second compound 10 µM) of 5.90. The viability, T/C [1] was 82.5%, the viability, T/C [2] was 94.6% and the viability, T/C [3] was 112%. The viability, T/C [4] was 64.2%, the viability, T/C [5] was 37.2% and the viability, T/C [6] was 22.6%. For the same compound, the viability, T/C [7] was 87.1%, the viability, T/C [8] was 95.7% and the viability, T/C [9] was 107%. It also gave a viability, T/C [10] of 66.6%, a viability, T/C [11] of 34.6% and a viability, T/C [12] of 27.5%. For the same compound, the viability, T/C [13] was 81.6%, the viability, T/C [14] was 85.5% and the viability, T/C [15] was 101%. For the same compound, the viability, T/C [16] was 58.8%, the viability, T/C [17] was 38.5% and the viability, T/C [18] was 29.2%. It also gave a viability, T/C [19] of 87.5%, a viability, T/C [20] of 84.1% and a viability, T/C [21] of 87.1%. The viability, T/C [22] was 63.6%, the viability, T/C [23] was 41.5% and the viability, T/C [24] was 31.6%. For the same compound, the viability, T/C [25] was 71.6%, the viability, T/C [26] was 72.6% and the viability, T/C [27] was 72.9%. For the same compound, the viability, T/C [28] was 61%, the viability, T/C [29] was 43% and the viability, T/C [30] was 26%. The viability, T/C [31] was 56.5%, the viability, T/C [32] was 64.4% and the viability, T/C [33] was 58.5%. The viability, T/C [34] was 54.3%, the viability, T/C [35] was 32.5% and the viability, T/C [36] was 16.5%.
Compound `COc1ccc([C@@H](O)c2cc(-c3ncnc4cc(N5CCOCC5)ccc34)c(F)cc2Cl)nn1` + Cc1[nH]c2ccc(F)cc2c1-c1nc2c3cccnc3c3ncccc3c2[nH]1 has a pIC50 (second compound 0.0316 µM) of 5.52, a pIC50 (second compound 0.1 µM) of 5.61 and a pIC50 (second compound 0.316 µM) of 5.37. It also gave a pIC50 (second compound 1 µM) of 5.47, a pIC50 (second compound 3.16 µM) of 5.68 and a pIC50 (second compound 10 µM) of 5.77. For the same compound, the viability, T/C [1] was 100%, the viability, T/C [2] was 89.6% and the viability, T/C [3] was 68.3%. The viability, T/C [4] was 64.6%, the viability, T/C [5] was 49.1% and the viability, T/C [6] was 38.6%. The viability, T/C [7] was 79.7%, the viability, T/C [8] was 95.4% and the viability, T/C [9] was 92.7%. It also gave a viability, T/C [10] of 73%, a viability, T/C [11] of 44.5% and a viability, T/C [12] of 31.9%. For the same compound, the viability, T/C [13] was 101%, the viability, T/C [14] was 115% and the viability, T/C [15] was 99.4%. The viability, T/C [16] was 66.8%, the viability, T/C [17] was 65.1% and the viability, T/C [18] was 28.4%. For the same compound, the viability, T/C [19] was 81.7%, the viability, T/C [20] was 99.5% and the viability, T/C [21] was 83.9%. It also gave a viability, T/C [22] of 67.1%, a viability, T/C [23] of 54.1% and a viability, T/C [24] of 30.3%. For the same compound, the viability, T/C [25] was 87.9%, the viability, T/C [26] was 76.8% and the viability, T/C [27] was 58%. For the same compound, the viability, T/C [28] was 73.5%, the viability, T/C [29] was 41.7% and the viability, T/C [30] was 19.3%. The viability, T/C [31] was 48.7%, the viability, T/C [32] was 85.9% and the viability, T/C [33] was 58.9%. For the same compound, the viability, T/C [34] was 66.3%, the viability, T/C [35] was 32.3% and the viability, T/C [36] was 15.8%.
